Assay results reported in patent publication US9708314B2, “Heterocyclic amide compound” (NISSAN CHEMICAL INDUSTRIES, LTD., priority 2013, dated 2017).

Columns and labels:
Format in all cases: in vivo
[1] = test system: directly sowed Oryza sativa; test: Test Example 3: effect on crop by application to foliage (Wagner pot, water depth 0.1-0.5 cm); conditions: Nineteenth Table; application to foliage; application herbicide amount 320 g/ha
In short: (§1)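 Rice-field weeds and directly sown rice were grown 14 days in flooded alluvial soil (water depth 0.1–0.5 cm) at 25–30 °C in a greenhouse. An emulsion formulation diluted to the stated g/ha rate was sprayed onto stems and leaves. Effects were scored on a 0–5 scale (herbicidal ratio bands) three weeks after treatment.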

Leptochloa chinensis = test: Test Example 3: herbicidal effect by application to foliage (Wagner pot, water depth 0.1-0.5 cm); conditions: Nineteenth Table; application to foliage; application herbicide amount 320 g/ha
In short: as §1

Cyperus difformis = test: as above; conditions: Nineteenth Table; application to foliage; application herbicide amount 320 g/ha
In short: as §1

[2] = test system: Echinochloa crus-galli var. crus-galli; test: as above; conditions: Nineteenth Table; application to foliage; application herbicide amount 320 g/ha
In short: as §1

Lolium multiflorum Lam. = test: Test Example 4: herbicidal effect by application to foliage (diluvial soil, plastic box)
In short: (§2)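 Scores run from 0 (herbicidal ratio ≤5%) to 5 (≥90%, almost fully withered) and were assessed three weeks after foliar spraying. Seedlings had been raised for 14 days at 25-30° C in sterilized diluvial soil before treatment, with the emulsion diluted in water to the stated g/ha dose.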

Stellaria media = test: as above
In short: as §2

Chenopodium album = test: as above
In short: as §2

Alopecurus myosuroides = test: as above
In short: as §2

Abutilon theophrasti = test: as above
In short: as §2

Veronica persica = test: as above
In short: as §2

Apera spica-venti. = test: as above
In short: as §2

Galium spurium = test: as above
In short: as §2

Avena fatua = test: as above
In short: as §2

Amaranthus retroflexus = test: as above
In short: as §2

Digitaria ciliaris = test: as above
In short: as §2

Setaria viridis = test: as above
In short: as §2

[3] = test system: Echinochloa crus-galli var. crus-galli; test: as above
In short: as §2

Zea mays = test: Test Example 4: effect on crop by application to foliage (diluvial soil, plastic box)
In short: as §2

Glycine max = test: as above
In short: as §2

[4] = test system: directly sowed Oryza sativa; test: as above
In short: as §2

Brassica campestris L. = test: as above
In short: as §2

[5] = test system: Beta vulgaris ssp. vulgaris; test: as above
In short: as §2

Triticum aestivum = test: as above
In short: as §2

[6] = Application herbicide amount 320 g/ha, foliage application
[7] = application to foliage, 320 g/ha

Cc1nnc(NC(=O)c2ccc(C(F)(F)F)n3c(SCC#N)nnc23)o1 [1-117]
b (effect on crop grade) [1]: 0 (Herbicidal ratio of 5% or less (almost no effect)) | D (herbicidal effect grade) (Leptochloa chinensis): 4 (Herbicidal ratio of 70% or more and less than 90%) | E (herbicidal effect grade) (Cyperus difformis): 2 (Herbicidal ratio of 20% or more and less than 40%) | H (herbicidal effect grade) [2]: 4 (Herbicidal ratio of 70% or more and less than 90%) | K (Lolium multiflorum Lam.) herbicidal effect grade (Lolium multiflorum Lam.; [6]): 0 (Herbicidal ratio of 5% or less (almost no effect)) | P (Stellaria media) herbicidal effect grade (Stellaria media; [6]): 3 (Herbicidal ratio of 40% or more and less than 70%) | O (Chenopodium album) herbicidal effect grade (Chenopodium album; [6]): 5 (Herbicidal ratio of 90% or more (almost completely withered)) | J (Alopecurus myosuroides) herbicidal effect grade (Alopecurus myosuroides; [6]): 0 (Herbicidal ratio of 5% or less (almost no effect)) | M (Abutilon theophrasti) herbicidal effect grade (Abutilon theophrasti; [6]): 3 (Herbicidal ratio of 40% or more and less than 70%) | R (Veronica persica) herbicidal effect grade (Veronica persica; [6]): 3 (Herbicidal ratio of 40% or more and less than 70%) | L (Apera spica-venti.) herbicidal effect grade (Apera spica-venti.; [6]): 0 (Herbicidal ratio of 5% or less (almost no effect)) | Q (Galium spurium) herbicidal effect grade (Galium spurium; [6]): 1 (Herbicidal ratio of 5% or more and less than 20%) | I (Avena fatua) herbicidal effect grade (Avena fatua; [6]): 0 (Herbicidal ratio of 5% or less (almost no effect)) | N (Amaranthus retroflexus) herbicidal effect grade (Amaranthus retroflexus; [6]): 3 (Herbicidal ratio of 40% or more and less than 70%) | F (Digitaria ciliaris) herbicidal effect grade (Digitaria ciliaris; [6]): 1 (Herbicidal ratio of 5% or more and less than 20%) | G (Setaria viridis) herbicidal effect grade (Setaria viridis; [6]): 1 (Herbicidal ratio of 5% or more and less than 20%) | H (Echinochloa crus-galli var. crus-galli) herbicidal effect grade [3, 6]: 4 (Herbicidal ratio of 70% or more and less than 90%) | c (Zea mays) effect on crop grade (Zea mays; [6]): 0 (Herbicidal ratio of 5% or less (almost no effect)) | d (Glycine max) effect on crop grade (Glycine max; [6]): 3 (Herbicidal ratio of 40% or more and less than 70%) | b (directly sowed Oryza sativa) effect on crop grade [4, 6]: 0 (Herbicidal ratio of 5% or less (almost no effect)) | g (Brassica campestris L.) effect on crop grade (Brassica campestris L.; [6]): 1 (Herbicidal ratio of 5% or more and less than 20%) | f (Beta vulgaris ssp. vulgaris) effect on crop grade [5, 6]: 3 (Herbicidal ratio of 40% or more and less than 70%) | e (Triticum aestivum) effect on crop grade (Triticum aestivum; [6]): 0 (Herbicidal ratio of 5% or less (almost no effect))

CCn1nc2c(C(=O)Nc3nnc(C)o3)ccc(C(F)(F)F)n2c1=O [6-003]
b (effect on crop grade) [1]: 0 (Herbicidal ratio of 5% or less (almost no effect)) | D (herbicidal effect grade) (Leptochloa chinensis): 5 (Herbicidal ratio of 90% or more (almost completely withered)) | E (herbicidal effect grade) (Cyperus difformis): 0 (Herbicidal ratio of 5% or less (almost no effect)) | H (herbicidal effect grade) [2]: 1 (Herbicidal ratio of 5% or more and less than 20%) | herbicidal effect, K (Lolium multiflorum Lam.) (Lolium multiflorum Lam.; [7]): 0 (Herbicidal ratio of 5% or less (almost no effect)) | herbicidal effect, P (Stellaria media) (Stellaria media; [7]): 4 (Herbicidal ratio of 70% or more and less than 90%) | herbicidal effect, O (Chenopodium album) (Chenopodium album; [7]): 3 (Herbicidal ratio of 40% or more and less than 70%) | herbicidal effect, J (Alopecurus myosuroides) (Alopecurus myosuroides; [7]): 0 (Herbicidal ratio of 5% or less (almost no effect)) | herbicidal effect, M (Abutilon theophrasti) (Abutilon theophrasti; [7]): 4 (Herbicidal ratio of 70% or more and less than 90%) | herbicidal effect, R (Veronica persica) (Veronica persica; [7]): 1 (Herbicidal ratio of 5% or more and less than 20%) | herbicidal effect, L (Apera spica-venti.) (Apera spica-venti.; [7]): 0 (Herbicidal ratio of 5% or less (almost no effect)) | herbicidal effect, Q (Galium spurium) (Galium spurium; [7]): 1 (Herbicidal ratio of 5% or more and less than 20%) | herbicidal effect, I (Avena fatua) (Avena fatua; [7]): 0 (Herbicidal ratio of 5% or less (almost no effect)) | herbicidal effect, N (Amaranthus retroflexus) (Amaranthus retroflexus; [7]): 2 (Herbicidal ratio of 20% or more and less than 40%) | herbicidal effect, F (Digitaria ciliaris) (Digitaria ciliaris; [7]): 4 (Herbicidal ratio of 70% or more and less than 90%) | herbicidal effect, G (Setaria viridis) (Setaria viridis; [7]): 3 (Herbicidal ratio of 40% or more and less than 70%) | herbicidal effect, H (Echinochloa crus-galli var. crus-galli) [3, 7]: 3 (Herbicidal ratio of 40% or more and less than 70%) | effect on crop, b (Zea mays) (Zea mays; [7]): 0 (Herbicidal ratio of 5% or less (almost no effect)) | effect on crop, c (Glycine max) (Glycine max; [7]): 0 (Herbicidal ratio of 5% or less (almost no effect)) | effect on crop, d (directly sowed Oryza sativa) [4, 7]: 0 (Herbicidal ratio of 5% or less (almost no effect)) | effect on crop, g (Brassica campestris L.) (Brassica campestris L.; [7]): 0 (Herbicidal ratio of 5% or less (almost no effect)) | effect on crop, f (Beta vulgaris ssp. vulgaris) [5, 7]: 1 (Herbicidal ratio of 5% or more and less than 20%) | effect on crop, e (Triticum aestivum) (Triticum aestivum; [7]): 0 (Herbicidal ratio of 5% or less (almost no effect))
